We go through three compounds from publication PMC9569971, “New Oxazolo[5,4-d]pyrimidines as Potential Anticancer Agents: Their Design, Synthesis, and In Vitro Biological Activity Research” (International Journal of Molecular Sciences, 2022).

In data set [1] the test system is HT29 primary colon adenocarcinoma cells. Nature of the data set: Detection of apoptosis (Annexin V FITC / propidium iodide). It counts as cell-based, human. The conditions noted are these: 24 h. Also noted: unit not given here. As for the experimental part: (§1) All cell lines were grown in 5% CO2 at 95% humidity and 37 °C, with both morphology and confluence assessed twice per week. When the confluence was greater than 70%, adherent cell lines were detached from the bottle surface with a TrypLE solution and then used in assays or reduced. The cells were collected into centrifuge tubes and centrifuged at 1000× g for 5 min at room temperature. The supernatant was removed to dry. The cell pellets were then resuspended in an appropriate medium. The cells were counted using a Bürker chamber and resuspended in 96-well plates to a cell density of 10,000 cells per well for MTT assay. For the rhodamine accumulation test and the detection of apoptosis assay, cells were seeded at a density of 30,000 per well. In the migration assay, cells were seeded at a density of 20,000 per well, and monolayer formation was awaited.
HT29 primary colon adenocarcinoma cells were grown in 96-well plates for 24 h. The 5 selected derivatives were added at concentrations of 1, 2, 5, and 10 µM, and then incubated for 24 h. The mixture of Annexin V conjugated with fluorescein and propidium iodide in PBS with Mg^2+ and Ca^2+ ions (Thermo Fisher Scientific, Waltham, MA, USA) was then applied. The incubation lasted 20 min at 37 °C. Pictures were taken using a fluorescence microscope. Thirteen images were taken from each well using an EVOS FL fluorescence microscope, with three replications for each compound. The open ImageJ space was used to analyze the number of cells. The Thermo Fisher Dead Cell Apoptosis Kit with Annexin V FITC and Propidium Iodide (PI) detects phosphatidylserine extrusion in apoptotic cells using Annexin V conjugated with a green fluorescent FITC dye and dead cells stained by PI with red fluorescence.

The next data set has as its system HT29. The arrangement: method as in PMID 32759841. The conditions noted are these: estimated based on data taken from reference; cited from earlier work.
The next data set deals with HT29 cells. As to the kind of experiment: Migration (scratch) assay. It is filed as cell-based, human. The conditions noted are these: control T 155558.2, control T0 544366.45. As for the experimental part:
The scratch test was performed to verify that the tested compound 3g could inhibit the formation of metastases by the HT29 cell line. The seeded HT29 cells were incubated until they formed a monolayer over the entire surface of the well. Then, a scratch test was performed by making a scratch in the monolayer and measuring its width—that is, To, amounting to 544,366.45 μm^2. Freshly prepared compounds were added to the HT29 cells at concentrations of 10, 25, 50, and 100 μM. Breeding plates were incubated for 24 h. The next day, scratch width was measured again using the ImageJ open-source platform. […] The lowest cellular overgrowth of HT29 culture occurred at the concentration of 100 μM for the compound. Compound 3g inhibited the migration of HT29 cells more strongly than the reference drugs, showing that it has the potential to inhibit metastasis. The width of the scratch after 24 h when no compound was applied to the cells was used as a control (T = 155,558.2 μm^2).
as §1
After seeding, HT29 cells were incubated until they formed a monolayer over the entire surface of the well. A scratch was made on the surface overgrown with cells, and then photomicrographs of the scratch were taken using the EVOS FL microscope. The freshly prepared compound 3g and the reference drugs were added at concentrations of 10, 25, 50, and 100 µM. Then, they were incubated for 24 h, and micrographs were performed at that time using the EVOS FL microscope. The scratch width was measured using the ImageJ open-source platform. The measurement of scratch width was also performed after 24 h without adding compounds.

The subject of data set [2] is primary colon adenocarcinoma (HT29). Nature of the data set: MTT viability assay, HT29. It counts as cell-based, human. As for the experimental part:
as §1, with “When” for “All cell lines were grown in 5% CO2 at 95% humidity and 37 °C, with both morphology and confluence assessed twice per week. When”
(§2) In this study, normal human dermal fibroblasts (NHDFs), breast cancer cells (MCF7), human lung adenocarcinoma cells (A549), murine fibroblasts (L929), colon adenocarcinoma cells (HT29), and colorectal adenocarcinoma cells (LoVo) were used. All cell lines were cultured in the recommended media. […] The human lung adenocarcinoma cell line A549 and breast cancer cell line MCF-7 were obtained from the ECACC. These cell lines were cultured in Eagle’s minimal essential medium (MEM). Murine fibroblast L929 (Sigma-Aldrich, Merck Group, Headquarters, Darmstadt, Germany; the European Collection of Authenticated Cell Cultures—ECACC) cells were grown in DMEM. […] All media were supplemented with 10% FBS and 100 µg/mL of penicillin–streptomycin.
(§3) All compounds were dissolved in DMSO and the reference drugs were dissolved in physiological saline to concentrations of 10 mM. Concentrations from 1 to 500 μM in the media recommended for the cell lines were prepared for the tests.
(§4) All of the synthesized derivatives were evaluated via the MTT assay. All cell lines were seeded into 96-well plates at a density of 10,000 cells per well. To allow the cells to adhere to the surface of the plates, they were incubated overnight before the application of the test compounds. […] The tests were performed for concentrations of 1, 5, 10, 25, 50, 100, 250, and 500 μM. The solutions of the test compounds were removed from the culture on the 96-well plates. […] The supernatant was then removed. The violet crystal was dissolved in isopropanol for 30 min by shaking. Absorbance was measured at 570 nm.
(§5) Biological assays were performed in three independent replicates, and each replicate used four samples. Three repetitions were made for the ELISA determinations. For the assessment of cytotoxicity, mathematical models were developed using the GraphPad PRISM software, based on which CC50 was determined. The values of CC50 were estimated based on nonlinear regression using the dependence of the biological effect on the molar concentrations of the compounds (four-parameter logistic model with Hill slope).
For orientation: Tetrazolium assays rely on reduction of a dye to a coloured formazan, in cell work by metabolically active cells.

The subject of data set [3] is lung adenocarcinoma (A549). As to the kind of experiment: MTT viability assay, A549. It counts as cell-based, human. As to the method:
as §1, with “When” for “All cell lines were grown in 5% CO2 at 95% humidity and 37 °C, with both morphology and confluence assessed twice per week. When”
as §2, §3, §4, §5

For data set [4], the target named is T1, P-glycoprotein (P-gp) in HT29 cells (Homo sapiens, UniProt P08183).
T1 construct: evaluate their effects on the efflux activity of P-gp in HT29 cells; host or cells: HT29 colon adenocarcinoma cells
T1 sequence (P08183 whole entry): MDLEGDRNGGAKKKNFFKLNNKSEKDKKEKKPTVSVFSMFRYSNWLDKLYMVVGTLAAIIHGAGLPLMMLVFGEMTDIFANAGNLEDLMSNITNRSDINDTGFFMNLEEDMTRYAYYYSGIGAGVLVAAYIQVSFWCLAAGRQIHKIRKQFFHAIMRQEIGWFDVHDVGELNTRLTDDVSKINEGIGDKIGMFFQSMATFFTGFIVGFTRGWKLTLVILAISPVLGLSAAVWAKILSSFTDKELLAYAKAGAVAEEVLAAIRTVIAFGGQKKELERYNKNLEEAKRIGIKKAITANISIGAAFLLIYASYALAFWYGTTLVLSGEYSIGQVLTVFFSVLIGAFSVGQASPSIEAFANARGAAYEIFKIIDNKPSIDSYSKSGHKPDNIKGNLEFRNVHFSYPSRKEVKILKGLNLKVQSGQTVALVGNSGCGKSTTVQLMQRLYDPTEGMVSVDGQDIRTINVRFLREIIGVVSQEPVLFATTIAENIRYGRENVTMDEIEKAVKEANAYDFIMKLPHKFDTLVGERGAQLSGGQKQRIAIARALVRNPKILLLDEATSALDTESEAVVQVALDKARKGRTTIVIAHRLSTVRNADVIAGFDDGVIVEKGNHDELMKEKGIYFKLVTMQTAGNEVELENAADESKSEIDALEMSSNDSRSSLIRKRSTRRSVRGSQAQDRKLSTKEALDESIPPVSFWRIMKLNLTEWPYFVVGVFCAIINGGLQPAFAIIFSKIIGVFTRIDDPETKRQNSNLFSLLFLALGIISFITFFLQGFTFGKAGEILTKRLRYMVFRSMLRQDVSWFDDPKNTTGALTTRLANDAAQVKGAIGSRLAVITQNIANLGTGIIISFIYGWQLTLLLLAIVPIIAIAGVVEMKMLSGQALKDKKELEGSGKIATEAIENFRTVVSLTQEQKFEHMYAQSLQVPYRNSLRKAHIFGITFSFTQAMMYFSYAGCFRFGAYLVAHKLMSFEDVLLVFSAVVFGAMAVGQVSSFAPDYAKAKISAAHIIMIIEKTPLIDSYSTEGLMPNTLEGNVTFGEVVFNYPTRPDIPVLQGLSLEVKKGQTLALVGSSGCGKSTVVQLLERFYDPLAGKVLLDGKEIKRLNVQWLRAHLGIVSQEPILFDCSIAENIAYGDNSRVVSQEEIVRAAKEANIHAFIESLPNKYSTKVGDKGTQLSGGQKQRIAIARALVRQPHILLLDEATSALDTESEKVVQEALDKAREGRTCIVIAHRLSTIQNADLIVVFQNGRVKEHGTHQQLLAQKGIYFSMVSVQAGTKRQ
Nature of the data set: Rhodamine-123 (Rh-123) accumulation assay. The conditions noted are these: HT29, 24 h, over all tested concentrations (1–20 μM). It counts as cell-based. As for the experimental part:
as §1, with “When” for “All cell lines were grown in 5% CO2 at 95% humidity and 37 °C, with both morphology and confluence assessed twice per week. When”
The level of significance was set at p < 0.05.

The test system of data set [5] is murine fibroblasts (L929). Nature of the data set: MTT viability assay, L929. It is filed as cell-based. The conditions noted are these: tested 1–500 µM. As for the experimental part: as §1, with “When” for “All cell lines were grown in 5% CO2 at 95% humidity and 37 °C, with both morphology and confluence assessed twice per week. When”
as §2, §3, §4, §5

Data set [6] concerns breast adenocarcinoma (MCF7). Nature of the data set: MTT viability assay, MCF7. It is filed as cell-based, human. The conditions noted are these: MCF7, MTT, tested 1–500 µM. As to the method: as §1, with “When” for “All cell lines were grown in 5% CO2 at 95% humidity and 37 °C, with both morphology and confluence assessed twice per week. When”
as §2, §3, §4, §5

The test system of data set [7] is normal human dermal fibroblasts (NHDF). As to the kind of experiment: MTT viability assay, NHDF. The conditions noted are these: tested 1–500 µM. It counts as cell-based. As for the experimental part: as §1, with “When” for “All cell lines were grown in 5% CO2 at 95% humidity and 37 °C, with both morphology and confluence assessed twice per week. When”
as §2, §3, §4, §5

Another data set deals with Jurkat T-cell. The arrangement: method as in PMID 32759841. Conditions: cited from earlier work.

Molecules are shown by their SMILES. “Also recorded” adds a separate entry of the source. Marks after values point to notes of the source that are not given here. Some results are limits rather than exact numbers.

As for `N.N.[Cl][Pt][Cl]` [Cisplatin, reference compound], the apoptosis mean in data set [1] (1 μM) worked out at 4.45; in [1] (2 μM), 7.18; in data set [1] (5 μM), 6.28; in data set [1] (10 μM), 2.34. In addition, the late apoptosis mean in data set [1] (1 μM) is on record as 26.25; in data set [1] (2 μM), 24.44; in [1] (5 μM), 29.59; in data set [1] (10 μM), 16.55. For the same compound, the necrosis mean in data set [1] (1 μM) worked out at 7.81; in data set [1] (2 μM), 4.42; in data set [1] (5 μM), 3.95; in data set [1] (10 μM), 32.35. The “percent live (viable) cells” value is given as 50.30 in data set [1] (1 μM), 52.47 in data set [1] (2 μM), 59.69 in data set [1] (5 μM) and 48.76 in [1] (10 μM). For the same compound, the CC50 in the data set on HT29 is 16.9 ± 1.94 µM. The “scratch width after 24 h, mean” value with HT29 cells (10 μM) turned out to be 171562.8 μm^2; with HT29 cells (25 μM), 209621 μm^2; in the data set with HT29 cells (50 μM), 216006.4 μm^2; in the data set on HT29 cells (100 μM) it was 253653.8 μm^2.

Take `CNc1ncnc2oc(-c3c(C)noc3N)nc12` [Compound 3a, 2-(5-Amino-3-methylisoxazol-4-yl)-7-N-methylaminooxazolo[5,4-d]pyrimidine]: the “SI (selectivity index)” value in data set [2] (CC50 NHDF / CC50 HT29) is >>1; in [3] (CC50 NHDF / CC50 A549), >>1 ^c. For the same compound, the CC50 amounted to 159 ± 12.1 µM in data set [2] (Homo sapiens, HT-29, HT29, MTT, tested 1–500 µM) and 245 ± 19 µM in data set [3] (Homo sapiens, A549, MTT, tested 1–500 µM). The apoptosis mean was 6.89 in data set [1] (1 μM), 5.35 in [1] (2 μM), 9.38 in [1] (5 μM) and 10.99 in [1] (10 μM). Moreover, the late apoptosis mean is on record as 11.16 in data set [1] (1 μM), 11.15 in data set [1] (2 μM), 11.51 in data set [1] (5 μM) and 12.07 in [1] (10 μM). The necrosis mean in [1] (1 μM) is 4.43; in [1] (2 μM) it was 9.07; in data set [1] (5 μM), 2.76; in [1] (10 μM), 5.55. The “percent live (viable) cells” value in data set [1] (1 μM) stood at 77.51; in data set [1] (2 μM), 74.42; in data set [1] (5 μM), 76.34; in data set [1] (10 μM), 71.40. Further, in [4], the “intracellular increase in rhodamine accumulation” value is “no intracellular increase”. Moreover, the “CC50 ± SD” value is on record as “no toxic activity; also recorded: Non-toxic ^b” in data set [5], “no cytotoxic activity” in data set [6] and “Non-toxic” in [7].

Consider `Cc1nc(NCCCN(C)C)c2nc(-c3c(C)noc3N)oc2n1` [SCM9], for which, in the data set on Jurkat T-cell (Jurkat T-cell model), the “expression of apoptosis-modulating proteins” value is listed as “did not alter”. Moreover, the “expression of MAPK pathway components JNK, p38α, and p38β” value in the data set on Jurkat T-cell is listed as “increased”. Moreover, the CC50 in the data set on HT29 was 39.1 ± 7.79 µM.
